Laboratory results as given in patent publication US20060264494A1, “Heterocyclic amide derivatives which process glycogen phorylase inhibitory activity” (AstraZeneca AB, priority 2003, published 2006).
≈ marks a conversion by molar mass, not a printed value. Read-outs that look alike come from different tables or passages of the source.

Tests used:
[1] = molecular target: T1, Human recombinant liver glycogen phosphorylase a (hrl GPa) (Homo sapiens, UniProt P06737); assay: glycogen phosphorylase inhibition, multienzyme coupled assay; type: biochemical
T1 sequence (P06737 1-847): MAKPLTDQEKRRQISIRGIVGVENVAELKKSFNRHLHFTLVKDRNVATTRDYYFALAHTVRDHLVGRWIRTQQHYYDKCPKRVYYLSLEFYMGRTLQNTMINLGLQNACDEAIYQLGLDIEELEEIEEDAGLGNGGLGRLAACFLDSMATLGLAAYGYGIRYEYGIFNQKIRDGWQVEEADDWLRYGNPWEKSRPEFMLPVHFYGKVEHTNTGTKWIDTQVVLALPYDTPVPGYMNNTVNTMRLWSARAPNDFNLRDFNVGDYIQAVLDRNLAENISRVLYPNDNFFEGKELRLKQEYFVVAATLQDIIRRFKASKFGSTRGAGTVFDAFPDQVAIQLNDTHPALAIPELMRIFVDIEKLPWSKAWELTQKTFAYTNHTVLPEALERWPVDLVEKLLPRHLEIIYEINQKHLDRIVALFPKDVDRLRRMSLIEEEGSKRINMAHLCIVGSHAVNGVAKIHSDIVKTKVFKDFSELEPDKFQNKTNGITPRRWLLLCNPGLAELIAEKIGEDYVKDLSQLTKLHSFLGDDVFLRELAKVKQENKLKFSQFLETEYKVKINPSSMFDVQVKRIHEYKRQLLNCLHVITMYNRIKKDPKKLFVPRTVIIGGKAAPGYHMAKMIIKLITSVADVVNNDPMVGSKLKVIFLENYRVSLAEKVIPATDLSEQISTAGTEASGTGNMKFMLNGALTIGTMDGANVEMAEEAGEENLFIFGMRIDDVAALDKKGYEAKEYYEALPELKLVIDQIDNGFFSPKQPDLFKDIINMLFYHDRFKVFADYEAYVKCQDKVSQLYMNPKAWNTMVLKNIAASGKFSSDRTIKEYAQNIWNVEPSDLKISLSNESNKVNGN
Procedure: The activity of the compounds is determined by measuring the inhibitory effect of the compounds on glycogen degradation, the production of glucose-1-phosphate from glycogen is monitored by the multienzyme coupled assay, as described in EP 0 846 464 A2, general method of Pesce et al (Pesce, M A, Bodourian, S H, Harris, R C, and Nicholson, J F (1977) Clinical Chemistry 23, […]). The reactions were in 384 well microplate format in a volume of 50 μl. The change in fluorescence due to the conversion of the co-factor NAD to NADH is measured at 340 nm excitation, 465 nm emission in a Tecan Ultra Multifunctional Microplate Reader. The reaction is in 50 mM HEPES, 3.5 mM KH2PO4, 2.5 mM MgCl2, 2.5 mM ethylene glycol-bis(b-aminoethyl ether) N,N,N′,N′-tetraacetic acid, 100 mM KCl, 8 mM D-(+)-glucose pH7.2, containing 0.5 mM dithiothreitol, the assay buffer solution. Human recombinant liver glycogen phosphorylase a (hrl GPa) 20 nM is pre-incubated in assay buffer solution with 6.25 mM NAD, 1.25 mg type III glycogen at 1.25 mg ml^−1 the reagent buffer, for 30 minutes. The coupling enzymes, phosphoglucomutase and glucose-6-phosphate dehydrogenase (Sigma) are prepared in reagent buffer, final concentration 0.25 Units per well. 20 μl of the hrl GPa solution is added to 10 μl compound solution and the reaction started with the addition of 20 μl coupling enzyme solution. Compounds to be tested are prepared in 10 μl 5% DMSO in assay buffer solution, with final concentration of 1% DMSO in the assay. The non-inhibited activity of GPa is measured in the presence of 10 μl 5% DMSO in assay buffer solution and maximum inhibition measured in the presence of 5 mgs ml^−1 N-ethylmaleimide. After 6 hours at 30° C. Relative Fluoresence Units (RFUs) are measured at 340 nm excitation, 465 nm emission.
The assay is performed at a test concentration of inhibitor of 10 μM or 100 μM.

[2] = conscious dogs, following a glucagon challenge; cited from earlier work
[3] = tested on: hepatocytes; conditions: cited from earlier work
[4] = db/db and ob/ob mice; dose related; cited from earlier work
[5] = thermodynamic solubility; type: physicochemical; conditions: 0.1 M phosphate buffer, pH 7.4, aqueous buffer, thermodynamic from solid, 0.1 M phosphate at pH7.4 for 24 hours
[6] = hrl GPa 20 nM, 6 hours at 30° C., read-out: Activity (μM) IC50

## 2-Chloro-N-{(1R,2R)-1-[[(2S)-2,3-dihydroxypropanoyl](methyl)amino]-2,3-dihydro-1H-inden-2-yl}-6H-thieno[2,3-b]pyrrole-5-carboxamide [Example 8]
[1]; [6]
  IC50: 0.07 µM
[1]; text b160, unit printed as nm, read-out: IC50
  IC50: 0.176 µM

## CCN1C(C)=C(C(=O)OC(C)C)C(c2ccccc2Cl)C2=C1COC2=O (stereo not drawn) [Bay R 3401]
[2]
  arterial plasma glucose: reduced significantly
  hepatic glucose output: reduced significantly

## CN(C)C(=O)[C@H](O)[C@H](Cc1ccccc1)NC(=O)c1cc2cc(Cl)ccc2[nH]1 [CP91149]
[3]
  glucagon stimulated glycogenolysis: reduce
  glucose output in hepatocytes: reduce
[4]
  plasma glucose concentration: reduced

## O=C(N[C@@H](Cc1ccc(F)cc1)C(=O)N1CCC(O)CC1)c1cc2cc(Cl)ccc2[nH]1 [CP320626]
[3]
  glucagon stimulated glycogenolysis: reduce
  glucose output in hepatocytes: reduce
[4]
  plasma glucose concentration: reduced

## COCC(=O)N(C)[C@@H]1c2ccccc2C[C@H]1NC(=O)c1cc2cc(Cl)sc2[nH]1 [Example 1, 2-Chloro-N-{(1R,2R)-1-[(methoxyacetyl)(methyl)amino]-2,3-dihydro-1H-inden-2-yl}-6H-thieno[2,3-b]pyrrole-5-carboxamide]
[1]; text b160, read-out: IC50
  IC50: 0.265 µM

## CN(C(=O)[C@@H](N)CO)[C@@H]1c2ccccc2C[C@H]1NC(=O)c1cc2sc(Cl)c(Cl)c2[nH]1.Cl [Example 27, 2,3-Dichloro-N-{(1R,2R)-1-[methyl(L-seryl)amino]-2,3-dihydro-1H-inden-2-y}-4H-thieno[3,2-b]pyrrole-5-carboxamide hydrochloride]
[5]
  solubility at 24 h: 50 µM
[1]; [6]
  IC50: 0.11 µM

## CC(=O)N(C)[C@@H]1c2ccccc2C[C@H]1NC(=O)c1cc2sc(Cl)c(Cl)c2[nH]1 [Reference Eg 1]
[5]
  solubility at 24 h: 1.4 µM (≈ 0.591 µg/mL)
[1]; [6]
  IC50: ~0.4 µM
